# Measurements from the supplement of paper PMC9663587.
# What was measured:
# [1] = compound: C=CC(=O)Nc1ccc(C(=O)Nc2[nH]nc3c2CN(C(=O)N[C@H](CN(C)C)c2ccccc2)C3(C)C)cc1 [YKL-5-124]; assay: GR value, 72 h; higher = faster growth (1 = untreated, <0 = killing);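 further: breast cancer and non-malignant breast epithelial lines, nine half-log doses, viable cells counted by Hoechst and LIVE/DEAD dye imaging versus time-zero plates and DMSO controls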
# [2] = compound: CN(C)C(=O)c1cc2cnc(Nc3ccc(N4CCNCC4)cn3)nc2n1C1CCCC1 [LEE011/Ribociclib]; assay: as above
# [3] = compound: CN(C)C/C=C/C(=O)Nc1ccc(C(=O)N2CCC[C@@H](Nc3ncc(Cl)c(-c4c[nH]c5ccccc45)n3)C2)cc1 [THZ531]; assay: as above
# [4] = compound: CN(C)C/C=C/C(=O)Nc1ccc(C(=O)Nc2cccc(Nc3ncc(Cl)c(-c4c[nH]c5ccccc45)n3)c2)cc1 [THZ1]; assay: as above
# [5] = compound: CCc1cnn2c(NCc3ccc[n+]([O-])c3)cc(N3CCCC[C@H]3CCO)nc12; assay: as above
# [6] = compound: T1, CN1CC[C@H](c2c(O)cc(O)c3c(=O)cc(-c4ccccc4Cl)oc23)[C@H](O)C1 [Flavopiridol]; assay: as above
# [7] = compound: CCN1CCN(Cc2ccc(Nc3ncc(F)c(-c4cc(F)c5nc(C)n(C(C)C)c5c4)n3)nc2)CC1; assay: as above
# [8] = compound: T2, CC(=O)c1c(C)c2cnc(Nc3ccc(N4CCN(CCOCCOCCOCCNC(=O)COc5cccc6c5C(=O)N(C5CCC(=O)NC5=O)C6=O)CC4)cn3)nc2n(C2CCCC2)c1=O [BSJ-03-123]; assay: as above
# [9] = compound: CC(C)Nc1cc(-c2c[nH]c(C(=O)N[C@H](CO)c3cccc(Cl)c3)c2)c(Cl)cn1 [BVD523]
# [10] = compound: CCOc1cc2ncc(C#N)c(Nc3ccc(OCc4ccccn4)c(Cl)c3)c2cc1NC(=O)/C=C/CN(C)C [Neratinib/HKI272]
# [11] = compound: C1=CC2=C(C=CC(=C2)C=C3C(=O)NC(=NCC4=CC=CS4)S3)N=C1 [R0-3306]
# [12] = compound: NC1(C(=O)N[C@@H](CCO)c2ccc(Cl)cc2)CCN(c2nc[nH]c3nccc2-3)CC1 [AZD5363]
# [13] = compound: T1, Flavopiridol
# [14] = compound: CCC1=CN=CN=C1N2CCN(CC2)CC3=NC4=C(N3)C=C(C=C4)C(F)(F)F
# [15] = compound: CO[C@@H](C)Cn1c(=O)n(C)c2cnc3ccc(-c4cncc(C(C)(C)O)c4)cc3c21
# [16] = compound: CC(=O)O[C@H]1C(=O)[C@@]2(C)[C@H]([C@H](OC(=O)c3ccccc3)[C@]3(O)C[C@H](OC(=O)[C@H](O)[C@@H](NC(=O)c4ccccc4)c4ccccc4)C(C)=C1C3(C)C)[C@]1(OC(C)=O)CO[C@@H]1C[C@@H]2O [Paclitaxel]
# [17] = compound: T2, BSJ-03-123
# 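Wherever GR50, 72 h is given: breast cancer and non-malignant breast epithelial cell lines, Deep Dye Drop or Dye Drop imaging, nine half-log doses, GR normalized to time-zero plates and DMSO-only controls.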
cell line,measurement,setting,value
SUM52PE,GR value,[1]; 0.001 µM,0.72 GR
same,GR value,[1]; 0.003162 µM,0.654 GR
same,GR value,[1]; 0.01 µM,0.573 GR
same,GR value,[1]; 0.03162 µM,0.552 GR
same,GR value,[1]; 0.1 µM,0.437 GR
same,GR value,[1]; 0.3162 µM,0.391 GR
same,GR value,[1]; 1 µM,0.364 GR
same,GR value,[1]; 3.162 µM,0.227 GR
same,GR value,[1]; 10 µM,0.0112 GR
same,GR value,[2]; 0.001 µM,0.991 GR
same,GR value,[2]; 0.003162 µM,0.857 GR
same,GR value,[2]; 0.01 µM,0.861 GR
same,GR value,[2]; 0.03162 µM,0.86 GR
same,GR value,[2]; 0.1 µM,0.822 GR
same,GR value,[2]; 0.3162 µM,0.797 GR
same,GR value,[2]; 1 µM,0.69 GR
same,GR value,[2]; 3.162 µM,0.681 GR
same,GR value,[2]; 10 µM,0.54 GR
same,GR value,[3]; 0.0001 µM,1.05 GR
same,GR value,[3]; 0.0003162 µM,0.984 GR
same,GR value,[3]; 0.001 µM,0.937 GR
same,GR value,[3]; 0.003162 µM,0.994 GR
same,GR value,[3]; 0.01 µM,1.02 GR
same,GR value,[3]; 0.03162 µM,0.978 GR
same,GR value,[3]; 0.1 µM,0.818 GR
same,GR value,[3]; 0.3162 µM,0.186 GR
same,GR value,[3]; 1 µM,-0.226 GR
same,GR value,[4]; 0.0001 µM,1.03 GR
same,GR value,[4]; 0.0003162 µM,1.01 GR
same,GR value,[4]; 0.001 µM,1.04 GR
same,GR value,[4]; 0.003162 µM,0.8 GR
same,GR value,[4]; 0.01 µM,0.733 GR
same,GR value,[4]; 0.03162 µM,0.0891 GR
same,GR value,[4]; 0.1 µM,-0.0885 GR
same,GR value,[4]; 0.3162 µM,-0.151 GR
same,GR value,[4]; 1 µM,-0.403 GR
same,GR value,[5]; 0.0001 µM,1.08 GR
same,GR value,[5]; 0.0003162 µM,1.14 GR
same,GR value,[5]; 0.001 µM,1.01 GR
same,GR value,[5]; 0.003162 µM,1.05 GR
same,GR value,[5]; 0.01 µM,0.925 GR
same,GR value,[5]; 0.03162 µM,-0.0619 GR
same,GR value,[5]; 0.1 µM,-0.245 GR
same,GR value,[5]; 0.3162 µM,-0.322 GR
same,GR value,[5]; 1 µM,-0.175 GR
same,GR value,[6]; 0.0001 µM,1.07 GR
same,GR value,[6]; 0.0003162 µM,1.06 GR
same,GR value,[6]; 0.001 µM,0.942 GR
same,GR value,[6]; 0.003162 µM,0.915 GR
same,GR value,[6]; 0.01 µM,1.02 GR
same,GR value,[6]; 0.03162 µM,0.945 GR
same,GR value,[6]; 0.1 µM,0.8 GR
same,GR value,[6]; 0.3162 µM,0.357 GR
same,GR value,[6]; 1 µM,-0.26 GR
same,GR value,[7]; 0.001 µM,0.991 GR
same,GR value,[7]; 0.003162 µM,0.962 GR
same,GR value,[7]; 0.01 µM,0.86 GR
same,GR value,[7]; 0.03162 µM,0.766 GR
same,GR value,[7]; 0.1 µM,0.619 GR
same,GR value,[7]; 0.3162 µM,0.497 GR
same,GR value,[7]; 1 µM,0.459 GR
same,GR value,[7]; 3.162 µM,0.365 GR
same,GR value,[7]; 10 µM,0.289 GR
same,GR value,[8]; 0.001 µM,1.02 GR
same,GR value,[8]; 0.003162 µM,0.851 GR
same,GR value,[8]; 0.01 µM,0.868 GR
same,GR value,[8]; 0.03162 µM,0.883 GR
same,GR value,[8]; 0.1 µM,0.862 GR
same,GR value,[8]; 0.3162 µM,0.78 GR
same,GR value,[8]; 1 µM,0.657 GR
same,GR value,[8]; 3.162 µM,0.634 GR
same,GR value,[8]; 10 µM,0.228 GR
same,"GR50, 72 h",[9],5.04 µM
same,"GR50, 72 h",[10],3.11 µM
same,"GR50, 72 h",[11],5.05 µM
same,"GR50, 72 h",[12],3.52 µM
same,"GR50, 72 h",[13],0.234 µM
same,"GR50, 72 h",[14],8 µM
same,"GR50, 72 h",[15],0.0079 µM
same,"GR50, 72 h",[16],0.00165 µM
same,"GR50, 72 h",[17],3.42 µM
